Test results published in patent US20260125357A1, “LACTATE ENHANCING COMPOUNDS AND USES THEREOF” (GLIAPHARM SA, priority 2022, published 2026).

How the values were obtained:
Format in all cases: in vivo, mouse
C57Bl/6J wild-type mice = assay: 18F-FDG PET glucose uptake in the brain; settings: gavage, 30 mg/kg, vs Vehicle
Method: All experiments were carried out in strict accordance with the Swiss Federal Guidelines for Animal Experimentation and were approved by the Cantonal Veterinary Office for Animal Experimentation (Canton of Geneva, Switzerland). Adult male C57Bl/6J wild-type mice weighting 18-28 g (8 to 12 weeks of age) were used (Charles River Laboratories). Animals were housed in groups of 3-5 in polypropylene cages (30×40×15 cm) with wire mesh top in a temperature (22±2° C.) and humidity (55±15%) controlled environment on a 12-hour light cycle (07.00-19.00 h lights on), except after surgeries when animal were housed individually. The samples (Vehicle or compounds of the invention) were administered per os (gavage) in a solution made of water supplemented with 0.4% hydroxypropyl methylcellulose (HPMC) Methocel 4 KM (w/v) and 0.25% Tween-20 (v/v), as previously described (Thackaberry et al., 2010, Toxicol Sci., 117(2):485-92). Concentrations of the compounds tested ranged from 3 to 30 mg/kg.
^18F-FDG PET Glucose uptake in the brain was measured in vivo using 18F-fluorodeoxyglucose (FDG) with positron emission tomography (PET) Scan. Mice were fasted for 12 hours before the scans PET/CT measurements. Compounds of the invention were administered by gavage, followed by an intraperitoneal injection of 5 MBq of ^18F-FDG in 300 μL of saline. […]

GLUT1-DS transgenic mice = assay: Lactate and glucose biosensors in GLUT1-DS transgenic mice; settings: oral 10 mg/kg, vs vehicle
Description: Heterozygous transgenic mice on 129/SvJ genetic background in which glucose transporter 1 (GLUT1) has been knocked down were used (GLUT1(+/−)) (Wang et al., 2016, Human Molecular Genetics, 15(7)). GLUT1-deficiency syndrome (GLUT1-DS) is a prototypic hypometabolic diseases caused by the mutation of GLUT1 and decreased levels of glucose and lactate in the brain (Tang et al., 2019, Annals of Clinical and Translational Neurology 6(9)). Mating colonies were composed of wild-type female mice and GLUT1-DS male mice, or GLUT1-DS female mice and wild-type male mice. F1 pups were genotyped after ear punching at weaning using PCR to determine genotype. Mice of 2 to 3 months of age were used.
Cerebral extracellular levels of lactate and glucose were monitored in vivo in GLUT1-DS transgenic male mice and wild-type (WT) male littermates using lactate and glucose biosensors (Pinnacle Technology), according to the manufacturer's instructions. […] After surgery, mice were monitored closely and received analgesic treatment for at least 4 days. After mice had fully recovered from surgery, compounds of the invention or vehicle were administered per os as previously described and cerebral levels of extracellular lactate or glucose were dynamically recorded for 6 hours using lactate or glucose biosensors, respectively. […]

[1] = tested on: mice injected with streptozotocin; assay: Novel Object Recognition in streptozotocin ICV injection model of Alzheimer's disease; settings: 1 day after training, vs Veh
Method: Craniotomies are performed on isoflurane-anesthetized mice for injections of Veh or streptozotocin in cerebral ventricles (coordinates: −0.5 mm (to bregma), lateral+/−1.0 mm (to midline), ventral −2.2 mm (to dura)) (Kelliny S. et al., Molecular Neurobiology, 2021). A solution composed of Veh (0.9% NaCl) or streptozotocin (5 mg/kg) prepared in 1 μl artificial cerebrospinal fluid solution (aCSF, 20 mM citrate buffer, pH 4.2) is injected in both cerebral ventricles using Hamilton micro syringe at a constant speed of 100-200 nl/min. After injection, skin of the skull is sutured, and mice is monitored closely and receives analgesic treatment for at least 4 days. After mice had fully recovered from surgery, memory tests including Morris Water Maze (MWM), Inhibitory Avoidance (IA) and Novel Object Recognition (NOR), as described below, are performed. […]
Novel object recognition (NOR) is a well-established protocol to evaluate recognition memory in rodent models. […] During the acquisition period, time spent exploring and number of contacts with each object are recorded. […] The time of exploration and number of contacts with each object are recorded. The activity is recorded automatically using automated tracking software (Ethovision).

SMILES: COc1cc2ccnc(Nc3ccc(S(C)(=O)=O)cc3)c2cc1OC [Compound 2, 6,7-dimethoxy-N-(4-methylsulfonylphenyl)isoquinolin-1-amine]
- glucose uptake in the brain (18F-FDG in the whole brain) (C57Bl/6J wild-type mice): increases glucose uptake in the brain
- extracellular glucose levels in the brain (GLUT1-DS transgenic mice): significantly increases
- extracellular lactate levels in the brain (GLUT1-DS transgenic mice): significantly increases extracellular lactate
- memory in the Novel object recognition ([1]; 10 mg/kg): significantly higher
- memory in the Novel object recognition ([1]; 30 mg/kg): significantly higher
